In ChEMBL document CHEMBL3822377, “Locking PDK1 in DFG-out conformation through 2-oxo-indole containing molecules: Another tools to fight glioblastoma” (Eur J Med Chem, 2016):

How the values were obtained:
[1] = molecular target: T1, 3-phosphoinositide-dependent protein kinase 1 (Homo sapiens) (UniProt O15530); experiment: Inhibition of PDK1 (unknown origin) at 10 uM by FRET-based Z-lyte assay
T1 sequence (whole entry): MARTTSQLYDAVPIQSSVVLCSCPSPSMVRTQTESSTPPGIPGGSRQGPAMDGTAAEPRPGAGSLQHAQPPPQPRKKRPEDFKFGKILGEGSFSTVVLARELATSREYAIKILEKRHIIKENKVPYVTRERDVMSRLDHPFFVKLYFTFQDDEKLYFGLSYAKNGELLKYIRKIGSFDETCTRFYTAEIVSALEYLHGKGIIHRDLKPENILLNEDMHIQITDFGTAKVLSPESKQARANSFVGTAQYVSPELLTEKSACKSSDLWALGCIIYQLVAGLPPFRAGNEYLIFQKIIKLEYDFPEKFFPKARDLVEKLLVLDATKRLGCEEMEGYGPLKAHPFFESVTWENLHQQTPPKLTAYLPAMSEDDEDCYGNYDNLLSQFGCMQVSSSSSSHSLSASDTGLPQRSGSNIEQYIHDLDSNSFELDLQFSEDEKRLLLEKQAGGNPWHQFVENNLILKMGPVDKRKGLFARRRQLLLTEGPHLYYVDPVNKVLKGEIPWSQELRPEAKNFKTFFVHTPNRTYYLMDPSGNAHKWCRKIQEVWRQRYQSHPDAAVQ

[2] = Antiproliferative activity against human U87MG cells after 72 hrs; assay type: functional, cell-based, U-87MG ATCC; settings: U-87 MG
[3] = molecular target: 3-phosphoinositide-dependent protein kinase 1 (Homo sapiens, UniProt O15530); experiment: Inhibition of PDK1 (unknown origin) using AKT(Thr-308)-tide substrate

SMILES	inhibition [1] [%]	also measured
O=C(CNC(=O)c1cccn(Cc2ccc(F)c(F)c2)c1=O)Nc1ccc2c(c1)CC(=O)N2	57	–
O=C1Nc2ccc(NC(=O)c3cccn(Cc4ccc(F)c(F)c4)c3=O)cc2/C1=C/c1cccs1	< 10	–
O=C1Nc2ccc(NC(=O)[C@H](NC(=O)c3cccn(Cc4ccc(F)c(F)c4)c3=O)c3ccccc3)cc2/C1=C/c1ncc[nH]1	74	–
O=C(N[C@@H](COc1ccc2[nH]c(=O)[nH]c2c1)c1ccccc1)c1cccn(Cc2ccc(F)c(F)c2)c1=O	–	IC50 [2]: > 30000 nM
O=C1Nc2ccc(NC(=O)c3cccn(Cc4ccc(F)c(F)c4)c3=O)cc2/C1=C\c1ccc(F)cc1	< 10	–
Cn1ccnc1/C=C1/C(=O)Nc2ccc(NC(=O)c3cccn(Cc4ccc(F)c(F)c4)c3=O)cc21	< 10	–
O=C1Nc2ccc(NC(=O)[C@H](NC(=O)c3cccn(Cc4ccc(F)c(F)c4)c3=O)c3ccccc3)cc2/C1=C\c1ccc(F)cc1	< 10	–
O=C(CNC(=O)c1cccn(Cc2ccc(F)c(F)c2)c1=O)Nc1ccc2c(c1)/C(=C\c1ccc(F)cc1)C(=O)N2	< 10	–
O=C1Cc2cc(NC(=O)[C@H](NC(=O)c3cccn(Cc4ccc(F)c(F)c4)c3=O)c3ccccc3)ccc2N1	< 10	–
O=C(CNC(=O)c1cccn(Cc2ccc(F)c(F)c2)c1=O)Nc1ccc2c(c1)/C(=C/c1cccs1)C(=O)N2	19	–
O=C1Nc2ccc(NC(=O)[C@H](NC(=O)c3cccn(Cc4ccc(F)c(F)c4)c3=O)c3ccccc3)cc2/C1=C/c1cnc[nH]1	95	–
O=C1Nc2ccc(NC(=O)[C@H](NC(=O)c3cccn(Cc4ccc(F)c(F)c4)c3=O)c3ccccc3)cc2/C1=C/c1cccs1	< 10	–
O=C1Nc2ccc(NC(=O)c3cccn(Cc4ccc(F)c(F)c4)c3=O)cc2/C1=C/c1cnc[nH]1	64	–
O=C(CC(c1ccccc1)C(C(=O)O)C(=O)O)c1ccc(C(F)(F)F)cc1 (stereo not given)	–	AC50 [3]: 2000 nM
O=C1Cc2cc(NC(=O)c3cccn(Cc4ccc(F)c(F)c4)c3=O)ccc2N1	< 10	–
